Laboratory results from patent US6716829B2, “Aldosterone antagonist and cyclooxygenase-2 inhibitor combination therapy to prevent or treat inflammation-related cardiovascular disorders” (Pharmacia Corporation, priority 2000, dated 2004).
Where “and” joins values, the source holds several entries; their conditions need not be identical. Equal values may be shown once.

Legend:
[1] = test system: aldosterone + salt treated uninephrectomized rats; assay: Assay C, further aldosterone infusion study: radiotelemetrized arterial (systolic) blood pressure; type: in vivo, Male Sprague-Dawley rats; settings: for Systolic Blood Pressure (mmHg): mean ± SEM of values every 5 min over 24-hour period
Experimental: Assay C: Further In Vivo Aldosterone Infusion Study
The procedure of Assay B was expanded upon in a further study. […] Myocardial tissue from animals in each treatment group was examined after 7, 14, or 30 days of treatment.
Male Sprague-Dawley rats, weighing 230 to 250 g, (Harlan Sprague-Dawley Industries, Indianapolis, IN) were housed in a room 12-hours light/12-hours dark daily cycle at an ambient temperature of 22±1° C. (n=96). Animals were allowed one week to adjust after arrival and had free access to TEKLAD 22/5 rodent diet (Harlan TEKLAD, Madison, Wis.) and tap water until the initiation of the experiment.
Potassium chloride supplementation was added to the saline solution in order to prevent the potential hypokalemia associated with aldosterone excess.
At the time of the surgery, an Alzet 2002 osmotic minipump (Alza Corp., Palo Alto, Calif.) containing either vehicle (9% ethanol/87% propylene glycol/4% dH2O) or 1.0 mg/mL d-aldosterone (Sigma Chemical, St. Louis, Mo.) was inserted subcutaneously at the nape of the neck. Aldosterone was administered at a dose of 0.75 µg/hour. […] Animals were sacrificed from each group (n=8-13) after 7, 14, or 30 days of treatment.
Animals to be sacrificed after 7 or 14 days of treatment were uninephrectomized and implanted with an Alzet minipump. Animals treated for 30 days were uninephrectomized, fitted for Alzet minipumps, and implanted with radio telemetry units (model #TA11PA-C40, Data Sciences Inc., St. Paul, Minn.) according to the following procedure. Animals were anesthetized with 5% isoflurane (SOLVAY Animal Health Inc., Mendota Heights, Minn.), which was delivered in O2 using a VMS anesthesia instrument (Matrix Medical, Inc., Orchard Park, N.Y.). Anesthesia was maintained with 1-2% isoflurane throughout the surgical procedure. The surgery site was clipped, scrubbed with nolvasan, and sprayed with betadine. A rostral-caudal incision was made through the skin from the base of the rib cage to the pubic region using a #11 scalpel blade. A second incision was made through the muscles of the abdominal wall to expose the peritoneal cavity. The […], renal artery and vein of the left kidney were isolated, tied off with 4-0 silk, and the kidney excised and discarded. Organs were carefully displaced with tissue retractors in order to expose the abdominal aorta. A 1.5 cm segment just rostral to the bifurcation of the abdominal aorta into the iliac arteries was cleared of excessive connective tissue and 4-0 silk was used to make an anchor adjacent to the aorta. A microvascular clip was then placed at both ends of the cleaned region to stop excessive blood flow. Using a bent, 21 gauge needle, the abdominal aorta was penetrated. The cannula of the radio telemetry unit was inserted and stabilized in the aorta using the 4-0 silk anchor. Organs were repositioned and the telemetry unit was placed over the organs. Using a non-interrupted suture pattern with 4-0 silk, the abdominal wall was closed, and the skin was subsequently closed using a 4-0 silk in an interrupted suture pattern. Animals were injected around the sutures with 100 μL of the anesthetic Marcaine HCl (Sanofi Winthrop Pharmaceuticals, New York, N.Y.) and given an injection (i.m.) of the antibiotic Mandol (Eli Lilly & Co., Indianapolis, Ind.). Post-operative care included monitoring the animals on a heating pad during recovery from anesthesia until sternal recumbency was reestablished. Animals were monitored daily for signs of distress and infection at the surgical site. Animals displaying continued discomfort after surgery were treated with 0.1-0.5 mg/kg, s.c. Buphrenorphine (Rickett & Colman Pharmaceuticals, Inc. Richmond, Va.). Animals were then placed on tap water and TEKLAD 22/5 rodent diet (Harlan TEKLAD, Madison, Wis.).
Radiotelemetrized arterial blood pressure was calculated with the […]

[2] = test system: osteopontin; assay: Assay A: immunostaining of hearts with osteopontin-specific antibody; type: in vivo, Male Wistar rats; settings: angiotensin II-infused, saline-drinking rats; eplerenone 100 mpk; aldosterone replacement in adrenalectomized rats
Description: Osteopontin (also known as early T-cell activation-1, Eta-1) is a secreted glycoprotein with pro-inflammatory characteristics that mediates chemoattraction, activation and migration of monocytes.

[3] = test system: hydroxyproline; assay: Assay C: myocardial hydroxyproline assay; type: in vivo, Male Sprague-Dawley rats
Experimental: The procedure of Assay B was expanded upon in a further study. […] Myocardial tissue from animals in each treatment group was examined after 7, 14, or 30 days of treatment. […] Lesions were preceded by the expression and progressive upregulation of proinflammatory molecules. […] Prior to surgery the animals were individually weighed and placed in one of the following groups: […] Potassium chloride supplementation was added to the saline solution in order to prevent the potential hypokalemia associated with aldosterone excess. […] Louis, Mo.) was inserted subcutaneously at the nape of the neck. Aldosterone was administered at a dose of 0.75 µg/hour. […] Animals were sacrificed from each group (n=8-13) after 7, 14, or 30 days of treatment. Following exsanguination, hearts and kidneys were isolated, removed, rinsed in cold phosphate-buffered saline, and blotted dry. […] Myocardial hydroxyproline concentration was measured by a […] assay that quantifies the reaction between oxidized hydroxyproline, and p-dimethylaminobenzaldehyde as described previously (4). […] Dried tissues and a positive collagen control (Bovine Collagen Type I, Sigma, St. […] T. Baker, Phillipsburg, N.J.) for 5 min at 25° C. […] Samples were incubated at 60° C. for 30 min, cooled to room temperature, and absorbance was monitored at 558 nm. Hydroxyproline content was quantitated from a freshly prepared standard curve of trans-4-hydroxy-L-proline (Sigma, St. Louis, Mo.). All samples and standards were performed in duplicate.

COC(=O)[C@@H]1CC2=CC(=O)CC[C@]2(C)[C@@]23O[C@@H]2C[C@@]2(C)[C@@H](CC[C@@]24CCC(=O)O4)[C@H]13 [Eplerenone]
Systolic Blood Pressure ([1]; Day 3, individual rats, 30-day protocol, listed as Eplerenone + aldosterone + salt): 123 mmHg and 126 mmHg (2×) and 130 mmHg (2×) and 128 mmHg and 119 mmHg and 125 mmHg (2×)
Systolic Blood Pressure (mmHg) ([1]; Day 3): 126 ± 1 mmHg
Systolic Blood Pressure ([1]; Day 4, individual rats, 30-day protocol, listed as Eplerenone + aldosterone + salt): 130 mmHg (2×) and 128 mmHg (2×) and 131 mmHg and 139 mmHg and 122 mmHg and 126 mmHg and 134 mmHg
Systolic Blood Pressure (mmHg) ([1]; Day 4): 130 ± 2 mmHg
Systolic Blood Pressure ([1]; Day 5, individual rats, 30-day protocol, listed as Eplerenone + aldosterone + salt): 132 mmHg (2×) and 134 mmHg and 143 mmHg and 123 mmHg and 127 mmHg (2×) and 133 mmHg and 142 mmHg
Systolic Blood Pressure (mmHg) ([1]; Day 5): 132 ± 2 mmHg
Systolic Blood Pressure ([1]; Day 6, individual rats, 30-day protocol, listed as Eplerenone + aldosterone + salt): 133 mmHg (2×) and 142 mmHg and 136 mmHg and 152 mmHg and 126 mmHg and 137 mmHg and 140 mmHg and 150 mmHg
Systolic Blood Pressure (mmHg) ([1]; Day 6): 139 ± 3 mmHg
Systolic Blood Pressure ([1]; Day 7, individual rats, 30-day protocol, listed as Eplerenone + aldosterone + salt): 140 mmHg (3×) and 142 mmHg and 143 mmHg and 156 mmHg (2×) and 132 mmHg and 141 mmHg
Systolic Blood Pressure (mmHg) ([1]; Day 7): 143 ± 3 mmHg
Systolic Blood Pressure ([1]; Day 8, individual rats, 30-day protocol, listed as Eplerenone + aldosterone + salt): 142 mmHg and 146 mmHg and 141 mmHg and 156 mmHg and 131 mmHg and 138 mmHg (2×) and 139 mmHg and 152 mmHg
Systolic Blood Pressure (mmHg) ([1]; Day 8): 142 ± 3 mmHg
Systolic Blood Pressure ([1]; Day 9, individual rats, 30-day protocol, listed as Eplerenone + aldosterone + salt): 142 mmHg and 146 mmHg and 139 mmHg and 154 mmHg and 130 mmHg and 133 mmHg and 137 mmHg and 141 mmHg and 151 mmHg
Systolic Blood Pressure (mmHg) ([1]; Day 9): 142 ± 3 mmHg
Systolic Blood Pressure ([1]; Day 10, individual rats, 30-day protocol, listed as Eplerenone + aldosterone + salt): 143 mmHg (2×) and 138 mmHg and 158 mmHg and 134 mmHg and 136 mmHg and 139 mmHg and 142 mmHg and 149 mmHg
Systolic Blood Pressure (mmHg) ([1]; Day 10): 142 ± 2 mmHg
Systolic Blood Pressure ([1]; Day 11, individual rats, 30-day protocol, listed as Eplerenone + aldosterone + salt): 145 mmHg (2×) and 139 mmHg and 138 mmHg and 160 mmHg and 136 mmHg and 137 mmHg and 140 mmHg and 152 mmHg
Systolic Blood Pressure (mmHg) ([1]; Day 11): 143 ± 3 mmHg
Systolic Blood Pressure ([1]; Day 12, individual rats, 30-day protocol, listed as Eplerenone + aldosterone + salt): 147 mmHg and 140 mmHg (2×) and 139 mmHg (2×) and 165 mmHg and 137 mmHg and 148 mmHg and 154 mmHg
Systolic Blood Pressure (mmHg) ([1]; Day 12): 145 ± 3 mmHg
Systolic Blood Pressure ([1]; Day 13, individual rats, 30-day protocol, listed as Eplerenone + aldosterone + salt): 148 mmHg and 144 mmHg and 137 mmHg and 170 mmHg and 140 mmHg (3×) and 149 mmHg
Systolic Blood Pressure (mmHg) ([1]; Day 13): 147 ± 3 mmHg
Systolic Blood Pressure (mmHg) ([1]; Day 14): 150 ± 4 mmHg
Systolic Blood Pressure (mmHg) ([1]; Day 15): 148 ± 4 mmHg
Systolic Blood Pressure (mmHg) ([1]; Day 16): 150 ± 4 mmHg
Systolic Blood Pressure (mmHg) ([1]; Day 17): 154 ± 5 mmHg
Systolic Blood Pressure (mmHg) ([1]; Day 18): 157 ± 5 mmHg
Systolic Blood Pressure (mmHg) ([1]; Day 19): 160 ± 5 mmHg
Systolic Blood Pressure (mmHg) ([1]; Day 20): 160 ± 5 mmHg
Systolic Blood Pressure (mmHg) ([1]; Day 21): 165 ± 6 mmHg
Systolic Blood Pressure (mmHg) ([1]; Day 22): 167 ± 6 mmHg
Systolic Blood Pressure (mmHg) ([1]; Day 23): 172 ± 6 mmHg
Systolic Blood Pressure (mmHg) ([1]; Day 25): 176 ± 6 mmHg
Systolic Blood Pressure (mmHg) ([1]; Day 26): 180 ± 7 mmHg
Systolic Blood Pressure ([1]; aldosterone + salt, uninephrectomized rats, up to 30 days, eplerenone 100 mg/kg/day): significantly reduced at days 8-30
Osteopontin expression in the heart (immunostaining) [2]: prevented osteopontin expression
Hydroxyproline ([3]; group mean, data used for Table 15 (14 days of treatment)): 4.46 µg/mg
Hydroxyproline ([3]; group mean, data used for Table 16 (30 days of treatment)): 4.10 µg/mg
Hydroxyproline ([3]; individual rats, data used for Table 15 (14 days of treatment), incl. rat marked * excluded from statistics, listed as Eplerenone + aldosterone + salt): 2.95 µg/mg and 5.97 µg/mg and 6.52 µg/mg and 5.35 µg/mg and 6.80 µg/mg and 5.32 µg/mg and 2.72 µg/mg and 3.13 µg/mg and 2.41 µg/mg and 2.81 µg/mg and 5.03 µg/mg
Hydroxyproline ([3]; individual rats, data used for Table 16 (30 days of treatment), incl. rat marked * excluded from statistics, listed as Eplerenone + aldosterone + salt): 5.18 µg/mg and 6.11 µg/mg and 5.17 µg/mg and 6.40 µg/mg and 2.73 µg/mg and 2.84 µg/mg and 2.97 µg/mg and 2.82 µg/mg and 2.72 µg/mg and 5.75 µg/mg
Hydroxyproline ([3]; mean after 7 days of treatment, eplerenone dose 100 mg/kg/day): 3.06 µg/mg
Hydroxyproline ([3]; mean after 14 days of treatment, eplerenone dose 100 mg/kg/day): 4.46 µg/mg
Hydroxyproline ([3]; mean after 30 days of treatment, eplerenone dose 100 mg/kg/day): 4.10 µg/mg
